Test results published in article PMC6792352, “Limited Chemical Structural Diversity Found to Modulate Thyroid Hormone Receptor in the Tox21 Chemical Library” (Environmental Health Perspectives, 2019).
Structures can show the parent of a compound that is named as a salt.

Assay: in vitro
Details: rat, gh3-tre-luc cells, AC50 (uM) modified / 1000

SMILES | CC50 at 24 h [µM]
CCCCOC(=O)c1ccc(N)cc1 [Butyl 4-aminobenzoate] | > 50
CC(=O)Nc1ccc(S(=O)(=O)Nc2cc(C)on2)cc1 [N-Acetyl sulfamethoxazole] | > 50
CCC(C)(CC)c1cc(NC(=O)c2c(OC)cccc2OC)on1 [Isoxaben] | > 90
CNC(=O)ON=C(C)C(C)S(C)(=O)=O (centres unmarked) [Butoxycarboxim] | > 900
CN1C(=O)NC(=O)C(C)(C2=CCCCC2)C1=O (centres unmarked) [Hexobarbital] | > 50
CCc1ccc(CCOc2ccc(CC3SC(=O)NC3=O)cc2)nc1 (centres unmarked) [Pioglitazone hydrochloride] | > 90
CCC(COC(=O)c1cc(OC)c(OC)c(OC)c1)(c1ccccc1)N(C)C (centres unmarked) [Trimebutine maleate] | > 50
C1N2CN3CN1CN(C2)C3 [Methenamine] | > 50
O=C(O)c1c2ccccc2cc2ccccc12 [9-Anthracenecarboxylic acid] | > 90
COc1cc(NCc2ccc3nc(N)nc(N)c3c2C)cc(OC)c1OC [Trimetrexate trihydrochloride] | 8.81
COc1ccc2[nH]cc(CCNC(C)=O)c2c1 [Melatonin] | > 90
CN1CCN(C(=O)O[C@H]2c3nccnc3C(=O)N2c2ccc(Cl)cn2)CC1 [Eszopiclone] | > 50
COP(=O)(OC)SCn1c(=O)oc2cc(Cl)cnc21 [Azamethiphos] | > 90
Cc1ccc(-c2ccccc2)cc1 [4-Phenyltoluene] | > 90
COC(=O)CC(=O)C(C)(C)C [Methyl pivaloylacetate] | > 90
CC(=O)OC(C)(C)C1CC=C(C)CC1 (stereo not drawn) [alpha-Terpinyl acetate] | > 90
O=S(=O)(c1ccc(O)cc1)c1ccc(O)cc1 [4,4'-Sulfonyldiphenol] | > 90
CCN1CCN(C(=O)N[C@@H](C(=O)N[C@@H]2C(=O)N3[C@@H]2SC(C)(C)[C@@H]3C(=O)O)c2ccccc2)C(=O)C1=O [Piperacillin sodium salt] | > 50
CCC(CC)C(=O)O [2-Ethylbutyric acid] | > 90
CCCOc1ccc(C(=O)OCCN(CC)CC)cc1N [Proparacaine hydrochloride] | > 50
C[C@]12C=CC(=O)N[C@@H]1CC[C@@H]1[C@@H]2CC[C@]2(C)[C@@H](C(=O)Nc3cc(C(F)(F)F)ccc3C(F)(F)F)CC[C@@H]12 [Dutasteride] | > 50
CCCCCCCCCCOC(=O)c1ccccc1C(=O)OCCCCCCCC [Octyl decyl phthalate] | > 90
CCCCCC(C)=O [2-Heptanone] | > 90
COC(COC(N)=O)C1=C(N2CC2)C(=O)C(C)=C(N2CC2)C1=O (centres unmarked) [Carboquone] | 0.556

SMILES | CC50 at 24 h [µM]
CC1(C(=O)Nc2ccc(O)c(Cl)c2Cl)CCCCC1 [Fenhexamid] | 76.7
CCCCCOC(=O)c1ccc(O)cc1 [Pentylparaben] | 67.4
O=C(C(Cl)Cl)N1CCOC12CCCCC2 [MON-4660] | 62.3
COCC(C)N(C(=O)CCl)c1c(C)csc1C (centres unmarked) [Dimethenamid] | > 90
O=C(Oc1ccccc1)c1ccc(O)cc1 [Phenylparaben] | > 90
CCC1(c2ccccc2)C(=O)NC(=O)N(C)C1=O (centres unmarked) [Mephobarbital] | > 50
CCNC(=O)[C@@H]1CCCN1C(=O)[C@H](CCCN=C(N)N)NC(=O)[C@H](CC(C)C)NC(=O)[C@@H](Cc1c[nH]c2ccccc12)NC(=O)[C@H](Cc1ccc(O)cc1)NC(=O)[C@H](CO)NC(=O)[C@H](Cc1c[nH]c2ccccc12)NC(=O)[C@H](Cc1cnc[nH]1)NC(=O)[C@@H]1CCC(=O)N1 [Deslorelin acetate] | 1.89
O=C1c2c(O)cccc2Cc2cccc(O)c21 [Anthralin] | > 90
CCCCCC(CO)CCC (centres unmarked) [2-Propyl-1-heptanol] | > 90
CC(C)(c1ccccc1)c1ccccc1 [2,2-Diphenylpropane] | > 90
NS(=O)(=O)c1cc2c(cc1Cl)NC(Cc1ccccc1)NS2(=O)=O (centres unmarked) [Benzylhydrochlorothiazide] | > 50
CS(=O)(=O)Nc1cc2occ(NC=O)c(=O)c2cc1Oc1ccccc1 [Iguratimod] | > 50
CNCCCC1c2ccccc2C=Cc2ccccc21 [Protriptyline hydrochloride] | 7.1
O=[N+]([O-])c1cc(Cl)c(Cl)c(Cl)c1 [3,4,5-Trichloronitrobenzene] | > 90
CC(=O)Oc1cccc2c1C(=O)c1c(OC(C)=O)cc(C(=O)O)cc1C2=O [Diacerein] | > 50
CNC(=O)NC [N,N'-Dimethylurea] | > 90
CC1=C(C(=O)OCCN(Cc2ccccc2)c2ccccc2)C(c2cccc([N+](=O)[O-])c2)C(P2(=O)OCC(C)(C)CO2)=C(C)N1 (centres unmarked) [Efonidipine] | 23.8
CCCC[N+](CCCC)(CCCC)CCCC [Tetrabutylammonium bromide] | > 90
C=CCCCCCCCCOC(C)=O [9-Decenyl acetate] | > 90
C=CCN1CC[C@]23CCCC[C@H]2[C@H]1Cc1ccc(O)cc13 [Levallorphan] | 28.6
O=C1O[C@H]([C@H](O)CO)C(O)=C1O [Isoascorbic acid] | > 90
CC(C)CCOCc1ccccc1 [Benzyl 3-methylbutyl ether] | > 90
O=C(CCNNC(=O)c1ccncc1)NCc1ccccc1 [Nialamide] | > 50
CCCc1nc2c(C)cc(-c3nc4ccccc4n3C)cc2n1Cc1ccc(-c2ccccc2C(=O)O)cc1 [Telmisartan] | > 50

SMILES | CC50 at 24 h [µM]
COc1ccc2sc(C(=O)Nc3nnn[nH]3)c(OC(C)C)c2c1 [CI-959] | 6.07
CCCCCBr [1-Bromopentane] | > 100
CCCCc1ccc2ccccc2c1S(=O)(=O)O [Butylnaphthalenesulfonic acid sodium salt] | > 90
CCCCC(C)(O)C/C=C/[C@H]1[C@H](O)CC(=O)[C@@H]1CCCCCCC(=O)OC (mixture of isomers) [Misoprostol] | > 50
CCN1CCCC1CNC(=O)c1cc(S(=O)(=O)CC)ccc1OC (centres unmarked) [Sultopride hydrochloride] | > 50
Cc1ccc(O)c(N)c1 [2-Amino-4-methylphenol] | 33.5
CC1=Nc2ccc3ccccc3c2C1(C)C [1,1,2-Trimethyl-1H-benzo[e]indole] | > 90
Cn1c(=O)c2c(ncn2CCO)n(C)c1=O [Etofylline] | > 50
CC1CC(=O)O1 (stereo not drawn) [beta-Butyrolactone] | > 100
CCCCCCCCC(=O)O [Nonanoic acid] | > 90
O=C(NCCCN1CCOCC1)c1ccc(Cl)cc1 [Eprobemide] | > 50
CCOC(=O)CC#N [Ethyl cyanoacetate] | > 90
CCOc1ccc(Cc2nccc3cc(OCC)c(OCC)cc23)cc1OCC [Ethaverine hydrochloride] | > 20
O=C(O)CCC/C=C\C[C@@H]1[C@@H](/C=C/[C@@H](O)COc2cccc(C(F)(F)F)c2)[C@H](O)C[C@@H]1O (racemic) [Fluprostenol] | > 50
C=CC(=O)OCCCC [Butyl acrylate] | > 90
CCN(CC)S(=O)(=O)c1ccc(C(=O)O)cc1 [Ethebenecid] | > 50
ONc1ccccc1 [N-Phenylhydroxylamine] | > 100
c1ccc(CNCCNCc2ccccc2)cc1 [N,N'-Dibenzylethane-1,2-diamine dihydrochloride] | > 50
Nc1ccc2cc3ccccc3cc2c1 [2-Aminoanthracene] | > 90
CO[C@H](C(=O)[C@@H](O)[C@@H](C)O)[C@@H]1Cc2cc3cc(O[C@H]4C[C@@H](O[C@H]5C[C@@H](O)[C@H](O)[C@@H](C)O5)[C@H](O)[C@@H](C)O4)c(C)c(O)c3c(O)c2C(=O)[C@H]1O[C@H]1C[C@@H](O[C@H]2C[C@@H](O[C@H]3C[C@](C)(O)[C@H](O)[C@@H](C)O3)[C@@H](O)[C@@H](C)O2)[C@H](O)[C@@H](C)O1 [Plicamycin] | 0.413
CN(C)C(=O)Nc1ccc(Cl)c(Cl)c1 [Diuron] | > 90
C=C(C)C(=O)OC(C)C [Isopropyl methacrylate] | > 90
NC(N)=Nc1nc(CSCCC(N)=NS(N)(=O)=O)cs1 [Famotidine] | > 90

Same assay, conditions: rat, gh3-tre-luc cells, AC50 (uM) modified / 1000, Tox21_110001=Tox21_111802; viability, 1 nM T3 present, 24 h

SMILES | CC50 at 24 h [µM]
O=C(CCl)c1ccc(Oc2ccc(C(=O)CCl)cc2)cc1 [Clofenoxyde] | > 50

Same assay, conditions: rat, gh3-tre-luc cells, AC50 (uM) modified / 1000, Tox21_110001=Tox21_112166; viability, 1 nM T3 present, 24 h

SMILES | CC50 at 24 h [µM]
CC1NCCOC1c1ccccc1 (centres unmarked) [Phenmetrazine hydrochloride] | > 50

Same assay, conditions: rat, gh3-tre-luc cells, AC50 (uM) modified / 1000, Tox21_110001=Tox21_112618; viability, 1 nM T3 present, 24 h

SMILES | CC50 at 24 h [µM]
CCC(N)Cc1c[nH]c2ccccc12 (centres unmarked) [Etryptamine] | > 50

Same assay, conditions: rat, gh3-tre-luc cells, AC50 (uM) modified / 1000, Tox21_110001=Tox21_112852; viability, 1 nM T3 present, 24 h

SMILES | CC50 at 24 h [µM]
CC(Cc1ccc2c(c1)OCO2)NO (centres unmarked) [1-(1,3-Benzodioxol-5-yl)-N-hydroxypropan-2-amine hydrochloride] | > 100

Same assay, conditions: rat, gh3-tre-luc cells, AC50 (uM) modified / 1000, Tox21_110001=Tox21_113045; viability, 1 nM T3 present, 24 h

SMILES | CC50 at 24 h [µM]
CNC(C)Cc1ccccc1OC (centres unmarked) [Methoxyphenamine] | > 50

Same assay, conditions: rat, gh3-tre-luc cells, AC50 (uM) modified / 1000, Tox21_110001=Tox21_200404; viability, 1 nM T3 present, 24 h

SMILES | CC50 at 24 h [µM]
CCC(C)Cl (centres unmarked) [2-Chlorobutane] | > 90

Same assay, conditions: rat, gh3-tre-luc cells, AC50 (uM) modified / 1000, Tox21_110001=Tox21_201151; viability, 1 nM T3 present, 24 h

SMILES | CC50 at 24 h [µM]
N#C/C=C/C#N [Fumaronitrile] | 49.9

Same assay, conditions: rat, gh3-tre-luc cells, AC50 (uM) modified / 1000, Tox21_110001=Tox21_201338; viability, 1 nM T3 present, 24 h

SMILES | CC50 at 24 h [µM]
CNC(=O)ON=CC(C)(C)S(C)(=O)=O [Aldoxycarb] | > 90

Same assay, conditions: rat, gh3-tre-luc cells, AC50 (uM) modified / 1000, Tox21_110001=Tox21_301750; viability, 1 nM T3 present, 24 h

SMILES | CC50 at 24 h [µM]
CC(C)(C)c1cc([N+](=O)[O-])cc(C(C)(C)C)c1O [2,6-Di-tert-butyl-4-nitrophenol] | 11
